Molecular target: T1, native LOXL2 protein in human plasma (Homo sapiens, UniProt Q9Y4K0)
T1 construct: from tissue; host or cells: human plasma (activity) and human serum (protein concentration) from clinical trial subjects
T1 sequence (Q9Y4K0 26-774): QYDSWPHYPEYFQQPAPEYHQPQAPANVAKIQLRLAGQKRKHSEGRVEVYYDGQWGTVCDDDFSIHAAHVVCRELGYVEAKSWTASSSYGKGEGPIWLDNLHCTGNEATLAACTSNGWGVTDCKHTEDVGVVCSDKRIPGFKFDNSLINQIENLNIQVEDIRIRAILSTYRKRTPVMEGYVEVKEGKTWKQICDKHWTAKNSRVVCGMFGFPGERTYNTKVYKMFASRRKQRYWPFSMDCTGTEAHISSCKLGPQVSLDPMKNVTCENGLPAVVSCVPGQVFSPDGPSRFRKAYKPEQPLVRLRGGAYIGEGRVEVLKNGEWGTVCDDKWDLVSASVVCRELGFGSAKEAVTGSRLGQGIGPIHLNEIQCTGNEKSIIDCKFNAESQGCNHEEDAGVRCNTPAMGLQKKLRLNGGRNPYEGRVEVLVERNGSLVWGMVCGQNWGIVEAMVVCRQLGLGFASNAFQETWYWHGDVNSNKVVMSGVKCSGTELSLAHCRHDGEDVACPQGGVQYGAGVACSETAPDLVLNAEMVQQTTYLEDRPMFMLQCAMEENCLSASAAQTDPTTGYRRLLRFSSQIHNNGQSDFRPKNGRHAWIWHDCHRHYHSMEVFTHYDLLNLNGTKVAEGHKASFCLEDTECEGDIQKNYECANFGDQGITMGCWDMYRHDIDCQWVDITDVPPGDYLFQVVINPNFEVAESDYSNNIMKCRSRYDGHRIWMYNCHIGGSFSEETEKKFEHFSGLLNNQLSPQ
Experiment: PXS-5878/Simoa platform, residual LOXL2 activity in human plasma
Assay type: biochemical
Conditions: human plasma incubated 30 min; read-out: IC50, inhibition of native LOXL2 in human plasma
Procedure: FIGURE 2 Characteristics of PXS‐5338 and inhibition of lysyl oxidase‐like 2 (LOXL2) enzymatic activity in vitro and in vivo. (A) Chemical structure of PXS‐5338. […] (B) Tissue levels of PXS‐5338 measured 1 and 4 h after a single oral dose of 30 mg/kg in the rat. […] Average data from three different animals. (C) Concentration‐dependent inhibition of native […] LOX and rh LOXL1‐4 in a standard Amplex Red assay with 30 min pre‐incubation; n ≥3 independent experiments, standard error of mean (SEM). (D) PXS‐5338 inhibits rh LOXL2 in a time‐dependent manner, with increasing potency observed upon longer incubation with the enzyme. LOXL2 activity data devised from Amplex Red assay using putrescine as substrate and varying pre‐incubation times; n ≥3 independent experiments, standard error of mean (SEM). […] AB0023 and the corresponding isotype control antibody GS834298 were kindly provided by Gilead. Concentration‐response curves for the pan‐LOX inhibitor BAPN and LOXL2‐selective inhibitor PXS‐5338 are included for comparison. Data represented as mean ± SD with n = 5/concentration. […] To enable translation of preclinical data into the clinic, human plasma was incubated with different concentrations of PXS‐5338 for 30 min and the PXS‐5878/Simoa® platform used to measure the residual activity. […]

- IC50: 37 nM
SMILES: CC(C)c1c(Cc2ccc(S(C)(=O)=O)nc2)c2ncccc2n1C/C(F)=C/CN [PXS‐5338]

Source: publication PMC8571951, “An activity‐based bioprobe differentiates a novel small molecule inhibitor from a LOXL2 antibody and provides renewed promise for anti‐fibrotic therapeutic strategies” (Clinical and Translational Medicine, 2021)
